Target: T1, Monoglyceride lipase (Rattus norvegicus, UniProt Q8R431)
T1 sequence (Q8R431 whole entry): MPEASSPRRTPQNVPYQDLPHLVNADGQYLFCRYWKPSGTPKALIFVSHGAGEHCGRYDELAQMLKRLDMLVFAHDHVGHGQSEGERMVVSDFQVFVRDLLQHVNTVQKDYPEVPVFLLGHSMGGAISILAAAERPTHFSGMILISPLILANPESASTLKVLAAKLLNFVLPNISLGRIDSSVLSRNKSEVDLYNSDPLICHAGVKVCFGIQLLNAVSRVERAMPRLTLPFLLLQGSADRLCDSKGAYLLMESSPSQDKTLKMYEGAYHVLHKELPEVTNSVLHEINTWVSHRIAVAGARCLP
Assay: Inhibition Assay
Conditions: pH 8
Excerpt: The measurement of the ability of URB602 compound to inhibit MGL activity.

Point of comparison: `O=C(Nc1cccc(-c2ccccc2)c1)NC1CCCCC1` [URB602, 4a], IC50 115 µM. Against it:
- O=C(NCCCCCc1ccccc1)OC1CCCCC1 [URB602, 3a] — higher, > 300 µM
- O=C(Nc1ccccc1)OC1CCCCC1 [URB602, 3b] — higher, > 300 µM
- O=C(Nc1cccc(-c2ccccc2)c1)OCCCCCc1ccccc1 [URB602, 3c] — higher, > 300 µM
- Cc1cccc(-c2cccc(NC(=O)OC3CCCCC3)c2)c1 [URB602, 3d] — higher, > 300 µM
- O=C(Nc1cccc(-c2cccc(C(F)(F)F)c2)c1)OC1CCCCC1 [URB602, 3e] — higher, > 300 µM
- O=C(Nc1cccc(Oc2cccc(-c3ccccc3)c2)c1)OC1CCCCC1 [URB602, 3f] — higher, > 300 µM
- O=C(Nc1ccccc1-c1ccccc1)OC1CCCCC1 [URB602, 3g] — higher, > 300 µM
- O=C(Nc1cccc(-c2ccccc2)c1)OCC(O)CO (centres undefined) [URB602, 3h] — higher, > 300 µM
- CC1(C)OCC(OC(=O)Nc2cccc(-c3ccccc3)c2)CO1 [URB602, 3i] — higher, > 300 µM
- O=C(Nc1cccc(-c2ccccc2)c1)Oc1cccc(-c2ccccc2)c1 [URB602, 3j] — higher, > 300 µM
- O=C(Nc1ccc(-c2ccccc2)cc1)OC1CCCCC1 [URB602, 3k] — higher, > 300 µM
- O=C(Nc1cccc(-c2ccccc2)c1)Oc1ccccc1 [URB602, 3l] — 2.1-fold higher, 243 µM
- Cc1cccc(-c2cccc(NC(=O)OC(CO)CO)c2)c1 [URB602, 3m] — higher, > 300 µM
- O=C(Nc1cccc(-c2ccccc2)c1)OC(CO)CO [URB602, 3n] — higher, > 300 µM
- CN(C(=O)OC1CCCCC1)c1cccc(-c2ccccc2)c1 [URB602, 3o] — higher, > 300 µM
- O=C(CC1CCCCC1)Nc1cccc(-c2ccccc2)c1 [URB602, 5] — higher, > 300 µM
- O=C(Nc1cccc(-c2ccccc2)c1)SC1CCCCC1 [URB602, 6] — higher, > 300 µM
- O=C(Nc1cccc(-c2ccccc2)c1)OC1CCCCC1 [cyclohexyl biphenyl-3-ylcarbamate] — 1.9-fold higher, 223 µM

Source: BindingDB's records for doi:10.1016/j.chembiol.2007.10.017 (University of California Irvine, 2007)
